In ChEMBL document CHEMBL1201862, “PubChem BioAssay data set” (2004):
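Where inhibition never reached the appropriate level, the endpoint shown equals the highest concentration tested. Otherwise, values were interpolated linearly from a five-concentration, 48-hour dose response in 96-well plates. At the GI50, growth is halved.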 Activity calls are given as the source filed them. Rule as the data show it: active = GI50 up to about 1.1 µM and inactive = higher.

Tests used:
Assay in all cases: growth of human tumour cells (NCI), 48 h
[1] = system: A498
[2] = system: ACHN
[3] = system: CAKI-1
[4] = system: EKVX
[5] = system: HCT-15
[6] = system: HOP-92
[7] = system: IGROV-1
[8] = system: K562
[9] = system: LOX IMVI
[10] = system: MCF7
[11] = system: MDA-MB-231
[12] = system: Malme-3M
[13] = system: NCI-H460
[14] = system: OVCAR-8
[15] = system: PC-3
[16] = system: SF-539
[17] = system: SK-OV-3
[18] = system: SNB-19
[19] = system: T47D
[20] = system: UO-31

Row | SMILES | GI50 [1] | GI50 [2] | GI50 [3] | GI50 [4] | GI50 [5] [µM] | GI50 [6] | GI50 [7] | GI50 [8] | GI50 [9] | GI50 [10] | GI50 [11] | GI50 [12] | GI50 [13] | GI50 [14] | GI50 [15] | GI50 [16] | GI50 [17] | GI50 [18] | GI50 [19] | GI50 [20]
1 | CCOC(=O)c1cccc(/N=N/Nc2cccc(C(=O)OCC)c2)c1 | 30.8 µM (inactive) | 53.8 µM (inactive) | 42 µM (inactive) | 57.8 µM (inactive) | > 100 | 22.3 µM (inactive) | 38.9 µM (inactive) | 71.4 µM (inactive) | > 100 µM (inactive) | 61.7 µM (inactive) | 17.8 µM (inactive) | 43.8 µM (inactive) | 64 µM (inactive) | 25.5 µM (inactive) | 34.4 µM (inactive) | 14.2 µM (inactive) | 28.7 µM (inactive) | 20.6 µM (inactive) | > 100 µM (inactive) | 17.7 µM (inactive)
2 | N=C(N)N/N=C(\c1ccc(F)cc1)c1ccc(C(F)(F)F)cc1 | < 0.01 µM (active) | 0.611 µM (active) | 0.451 µM (active) | 0.505 µM (active) | 0.294 | 1.46 µM (inactive) | 0.284 µM (active) | 0.132 µM (active) | 0.323 µM (active) | 0.242 µM (active) | 0.33 µM (active) | 0.851 µM (active) | 0.332 µM (active) | 0.376 µM (active) | 0.357 µM (active) | 0.27 µM (active) | 0.817 µM (active) | 0.573 µM (active) | 2.08 µM (inactive) | 0.53 µM (active)
3 | CNC(=O)NC(CCCCNC(=O)OCc1ccccc1)C(=O)OCc1ccccc1 (stereo not given) | 20.3 µM (inactive) | 41.9 µM (inactive) | 47.6 µM (inactive) | 59.8 µM (inactive) | > 96.8 | 16.6 µM (inactive) | > 100 µM (inactive) | 31.3 µM (inactive) | 34.3 µM (inactive) | 53 µM (inactive) | > 42.9 µM (inactive) | 27 µM (inactive) | > 100 µM (inactive) | 61.4 µM (inactive) | 45.1 µM (inactive) | 30.3 µM (inactive) | > 100 µM (inactive) | > 100 µM (inactive) | 28.1 µM (inactive) | 47.3 µM (inactive)
4 | COc1cc2c(cc1OC)C(=O)/C(=C/c1ccccc1)C2 | 4.54 µM (inactive) | > 100 µM (inactive) | > 100 µM (inactive) | > 100 µM (inactive) | > 82 | > 70 µM (inactive) | > 67 µM (inactive) | 11.9 µM (inactive) | 86.5 µM (inactive) | > 71.3 µM (inactive) | > 100 µM (inactive) | > 83 µM (inactive) | 53.7 µM (inactive) | > 100 µM (inactive) | > 58.9 µM (inactive) | 43.6 µM (inactive) | > 100 µM (inactive) | > 100 µM (inactive) | 63.5 µM (inactive) | > 83.8 µM (inactive)
5 | C[C@H](C(O)CC(=O)C(C)(C)O)[C@H]1CC[C@@]2(C)[C@@H]3CC[C@H]4C(C)(C)[C@@H](OC5OC(COC6OC(CO)C(O)C(O)C6O)C(O)C(O)C5O)CC[C@]4(C)C3=CC[C@]12C (stereo not given in full) | > 100 µM (inactive) | > 100 µM (inactive) | > 100 µM (inactive) | > 100 µM (inactive) | > 100 | > 100 µM (inactive) | > 100 µM (inactive) | > 100 µM (inactive) | > 100 µM (inactive) | > 100 µM (inactive) | > 100 µM (inactive) | > 100 µM (inactive) | > 100 µM (inactive) | > 100 µM (inactive) | > 100 µM (inactive) | > 100 µM (inactive) | > 100 µM (inactive) | > 100 µM (inactive) | > 100 µM (inactive) | > 100 µM (inactive)
6 | OB(O)c1ccccc1C#Cc1ccccc1B(O)O | 3.04 µM (inactive) | 20.7 µM (inactive) | 3.09 µM (inactive) | 16.9 µM (inactive) | 20.9 | 23.3 µM (inactive) | 3.14 µM (inactive) | 38.3 µM (inactive) | 19 µM (inactive) | 3.13 µM (inactive) | 20.8 µM (inactive) | 17.1 µM (inactive) | 14.4 µM (inactive) | 22.6 µM (inactive) | 22.1 µM (inactive) | 18.4 µM (inactive) | 24 µM (inactive) | 21.8 µM (inactive) | 2.98 µM (inactive) | 20.3 µM (inactive)
7 | CC(C)(C)OC(=O)NC(CSCc1ccc(C(=O)c2ccccc2)cc1)C(=O)N1CCN(CCCCN2c3ccccc3Sc3cc(N=[N+]=[N-])ccc32)CC1 (stereo not given) | > 100 µM (inactive) | > 100 µM (inactive) | > 100 µM (inactive) | > 100 µM (inactive) | > 100 | > 100 µM (inactive) | > 100 µM (inactive) | > 100 µM (inactive) | > 100 µM (inactive) | > 100 µM (inactive) | > 100 µM (inactive) | > 100 µM (inactive) | > 100 µM (inactive) | > 100 µM (inactive) | > 100 µM (inactive) | > 100 µM (inactive) | > 100 µM (inactive) | > 100 µM (inactive) | > 100 µM (inactive) | > 100 µM (inactive)
8 | C=C1C(=O)O[C@@H]2[C@H]1C[C@@H](O)[C@H](C)[C@@](O)(C(=O)/C=C/C)[C@H]2OC(=O)C(C)CC (stereo not given in full) | 18.7 µM (inactive) | 2.99 µM (inactive) | 1.26 µM (inactive) | 8.57 µM (inactive) | 2.44 | 3.21 µM (inactive) | 2.58 µM (inactive) | 2.28 µM (inactive) | 2.93 µM (inactive) | 4.81 µM (inactive) | 5.79 µM (inactive) | 2 µM (inactive) | 28.8 µM (inactive) | 2.22 µM (inactive) | 16.5 µM (inactive) | 7.33 µM (inactive) | 42.2 µM (inactive) | > 46.3 µM (inactive) | 5.7 µM (inactive) | 1.82 µM (inactive)
9 | c1ccc(CSC(SCc2ccccc2)c2ccc3c(c2)OCO3)cc1 | > 10 µM (inactive) | > 10 µM (inactive) | > 10 µM (inactive) | > 10 µM (inactive) | > 10 | > 10 µM (inactive) | > 10 µM (inactive) | > 10 µM (inactive) | > 10 µM (inactive) | > 10 µM (inactive) | > 10 µM (inactive) | > 10 µM (inactive) | > 10 µM (inactive) | > 10 µM (inactive) | > 10 µM (inactive) | > 10 µM (inactive) | 6.44 µM (inactive) | > 10 µM (inactive) | > 10 µM (inactive) | > 10 µM (inactive)
10 | COC(=O)C1=CC2CCCC1(O)C(C(C)=O)C2 (stereo not given) | > 100 µM (inactive) | > 100 µM (inactive) | > 100 µM (inactive) | 52.7 µM (inactive) | > 66.5 | 41.4 µM (inactive) | 15.4 µM (inactive) | 34 µM (inactive) | 16.6 µM (inactive) | > 79.6 µM (inactive) | 46.6 µM (inactive) | > 100 µM (inactive) | > 85.1 µM (inactive) | 44.4 µM (inactive) | 61.2 µM (inactive) | 11.6 µM (inactive) | > 100 µM (inactive) | > 100 µM (inactive) | 27.4 µM (inactive) | 17.3 µM (inactive)
11 | O=c1[nH]/c(=C/c2ccc(OCc3ccccc3)cn2)c(=O)[nH]/c1=C/c1ccc(O)cc1 | > 37.2 µM (inactive) | 1.67 µM (inactive) | 0.834 µM (active) | 2.71 µM (inactive) | 0.501 | 11.6 µM (inactive) | 0.764 µM (active) | 0.859 µM (active) | 0.507 µM (active) | 1 µM (active) | 1.6 µM (inactive) | 2.34 µM (inactive) | 1.41 µM (inactive) | 0.877 µM (active) | 1.13 µM (inactive) | 0.461 µM (active) | 4.99 µM (inactive) | 2.15 µM (inactive) | 1.76 µM (inactive) | 0.622 µM (active)
